Measured values taken from patent US7893069B2, “Substituted imidazo[2,1-b]thiazole compounds and uses thereof” (Gruenenthal GmbH, priority 2006, dated 2011).
pIC50, pKi: −log10 of the molar value.

Key:
mGluR5 receptor (human) = target: T1, mGluR5 receptor (human) (Homo sapiens, UniProt P41594); assay: Functional Ca2+ influx assay in CHO-hmGluR5 cells (DHPG-stimulated, FLIPR); format: cell-based; settings: 10 μM DHPG, Ki=IC50/(1+AGConc./EC50)
T1 construct: host or cells: CHO-hmGluR5 cells (purchased cell line; incubated overnight with doxycycline)
T1 sequence (P41594 21-1212): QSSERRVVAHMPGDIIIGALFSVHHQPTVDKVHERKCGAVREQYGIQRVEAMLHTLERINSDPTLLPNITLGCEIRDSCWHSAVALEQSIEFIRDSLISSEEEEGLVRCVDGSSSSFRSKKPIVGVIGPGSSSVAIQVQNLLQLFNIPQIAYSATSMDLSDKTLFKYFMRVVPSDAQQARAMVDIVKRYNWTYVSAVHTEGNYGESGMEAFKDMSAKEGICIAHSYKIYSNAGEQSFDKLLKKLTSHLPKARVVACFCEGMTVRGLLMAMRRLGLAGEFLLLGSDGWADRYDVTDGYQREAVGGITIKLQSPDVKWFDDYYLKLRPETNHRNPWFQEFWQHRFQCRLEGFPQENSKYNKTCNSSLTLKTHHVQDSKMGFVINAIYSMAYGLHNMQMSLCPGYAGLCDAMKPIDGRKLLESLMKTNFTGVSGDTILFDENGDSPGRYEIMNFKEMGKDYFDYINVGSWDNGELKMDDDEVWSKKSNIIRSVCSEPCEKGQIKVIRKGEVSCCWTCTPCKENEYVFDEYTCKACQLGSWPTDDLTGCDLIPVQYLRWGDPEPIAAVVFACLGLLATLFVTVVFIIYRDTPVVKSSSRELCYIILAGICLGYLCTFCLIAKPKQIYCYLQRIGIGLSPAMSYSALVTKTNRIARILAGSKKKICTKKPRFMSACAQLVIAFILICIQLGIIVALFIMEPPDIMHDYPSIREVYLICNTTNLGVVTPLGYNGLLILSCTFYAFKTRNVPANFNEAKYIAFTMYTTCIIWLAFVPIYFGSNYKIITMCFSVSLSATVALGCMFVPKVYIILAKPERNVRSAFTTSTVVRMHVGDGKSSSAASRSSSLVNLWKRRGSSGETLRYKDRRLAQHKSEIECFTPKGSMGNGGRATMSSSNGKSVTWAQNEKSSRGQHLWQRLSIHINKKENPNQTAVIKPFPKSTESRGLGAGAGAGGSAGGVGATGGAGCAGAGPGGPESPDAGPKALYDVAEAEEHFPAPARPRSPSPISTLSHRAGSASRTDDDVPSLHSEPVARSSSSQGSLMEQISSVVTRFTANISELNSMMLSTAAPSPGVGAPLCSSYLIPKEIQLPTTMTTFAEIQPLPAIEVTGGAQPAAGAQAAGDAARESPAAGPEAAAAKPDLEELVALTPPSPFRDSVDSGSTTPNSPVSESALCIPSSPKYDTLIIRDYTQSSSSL
Method: The data is analyzed by means of a 1-factorial ANOVA (comparison of treatment groups versus vehicle group). The significance level is set at p<0.05. All the groups have a size of N=10. The test is also described in Hogg, S. (1996) “A review of the validity and variability of the elevated plus-maze as an animal model of anxiety,” Pharmacol. Biochem. Behav. 54, 21-30, and in Rodgers, R. J., Cole, J. C. (1994) “The elevated plus-maze: pharmacology, methodology and ethology,” in Cooper, S. J., Hendrie, C. A. (eds.) Ethology and Psychopharmacology. Wiley & Sons; pp. 9-44. 5. Description of the Functional Ca^2+ Influx Assay […]
After recording the fluorescence base line for 10 sec., 50 μl test substance solution (various test substance concentrations in HBSS buffer with 1% DMSO and 0.02% Tween 20, Sigma) is added and the fluorescence signal is measured for 6 min. 50 μl DHPG solution ((S)-3,5-dihydroxyphenylglycine, Tocris Biotrend Chemikalien GmbH, Cologne, Germany, final DHPG concentration: 10 μM) is subsequently added and the inflow of Ca^2+ is simultaneously measured for 60 sec. […] The data is analysed with Microsoft Excel and GraphPad Prism. The dose-effect curves are calculated with non-linear regression and IC50 values determined. Each data point is determined 3 times and IC50 values are averaged from a minimum of 2 independent measurements. […]

rat = assay: Formalin test in rats (phase 2, chronic pain component); format: in vivo; settings: p.o., 10 mg/kg, administered 30 min before formalin
Method: 2a. Formalin Test in Rats The formalin test (Dubuisson, D. and Dennis, S. G., 1977, Pain, 4, 161-174) represents a model for acute and chronic pain. A biphasic nociceptive reaction, which is recorded by observation of three clearly differentiable behavioural patterns, is induced by a single formalin injection into the dorsal side of a rear paw in freely mobile test animals. The reaction has two phases: Phase 1=Immediate reaction (duration up to 10 min; paw shaking, licking), Phase 2=Late reaction (after a rest phase; likewise, paw shaking, licking; duration up to 60 min). The 1st phase reflects a direct stimulation of the peripheral nocisensors with high spinal nociceptive input or glutamate release (acute pain phase); the 2nd phase reflects a spinal and peripheral hypersensitisation (chronic pain phase). In the investigations presented here, the chronic pain component (phase 2) was evaluated. Formalin with a volume of 50 μl and a concentration of 5% is administered subcutaneously into the dorsal side of the right rear paw of each animal. The substances to be tested are administered 30 min before the formalin injection orally (p.o), intravenously (i.v.) or intraperitoneally (i.p.). The specific changes in behavior such as lifting and shaking the paw, shifts in weight of the animal as well as biting and licking reactions are observed and registered in the period of observation from 21 to 27 min after formalin injection. The various forms of behavior are summarized in the so-called pain rate (PR), which, relative to the sub-intervals of 3 min, represents the calculation of an average nociception reaction. […] The group size is 10 animals (n=10). 2b. Formalin Test in Mice

mGluR5 receptor (pig) = target: T2, mGluR5 receptor (pig) (Sus scrofa, UniProt I3LUI7); assay: [3H]-MPEP binding assay, pig brain homogenate; settings: displacement of 5 nM [3H]-MPEP, 450 μg protein from pig brain homogenate, 60 min, room temperature; read-out: IC50 [3H]-MPEP bond mGluR5 receptor (pig)
T2 construct: 450 μg protein from brain homogenate is incubated with 5 nM; from tissue; host or cells: pig brain halves without medulla, cerebellum and pons; homogenate, differential centrifugation
T2 sequence (I3LUI7 19-1212): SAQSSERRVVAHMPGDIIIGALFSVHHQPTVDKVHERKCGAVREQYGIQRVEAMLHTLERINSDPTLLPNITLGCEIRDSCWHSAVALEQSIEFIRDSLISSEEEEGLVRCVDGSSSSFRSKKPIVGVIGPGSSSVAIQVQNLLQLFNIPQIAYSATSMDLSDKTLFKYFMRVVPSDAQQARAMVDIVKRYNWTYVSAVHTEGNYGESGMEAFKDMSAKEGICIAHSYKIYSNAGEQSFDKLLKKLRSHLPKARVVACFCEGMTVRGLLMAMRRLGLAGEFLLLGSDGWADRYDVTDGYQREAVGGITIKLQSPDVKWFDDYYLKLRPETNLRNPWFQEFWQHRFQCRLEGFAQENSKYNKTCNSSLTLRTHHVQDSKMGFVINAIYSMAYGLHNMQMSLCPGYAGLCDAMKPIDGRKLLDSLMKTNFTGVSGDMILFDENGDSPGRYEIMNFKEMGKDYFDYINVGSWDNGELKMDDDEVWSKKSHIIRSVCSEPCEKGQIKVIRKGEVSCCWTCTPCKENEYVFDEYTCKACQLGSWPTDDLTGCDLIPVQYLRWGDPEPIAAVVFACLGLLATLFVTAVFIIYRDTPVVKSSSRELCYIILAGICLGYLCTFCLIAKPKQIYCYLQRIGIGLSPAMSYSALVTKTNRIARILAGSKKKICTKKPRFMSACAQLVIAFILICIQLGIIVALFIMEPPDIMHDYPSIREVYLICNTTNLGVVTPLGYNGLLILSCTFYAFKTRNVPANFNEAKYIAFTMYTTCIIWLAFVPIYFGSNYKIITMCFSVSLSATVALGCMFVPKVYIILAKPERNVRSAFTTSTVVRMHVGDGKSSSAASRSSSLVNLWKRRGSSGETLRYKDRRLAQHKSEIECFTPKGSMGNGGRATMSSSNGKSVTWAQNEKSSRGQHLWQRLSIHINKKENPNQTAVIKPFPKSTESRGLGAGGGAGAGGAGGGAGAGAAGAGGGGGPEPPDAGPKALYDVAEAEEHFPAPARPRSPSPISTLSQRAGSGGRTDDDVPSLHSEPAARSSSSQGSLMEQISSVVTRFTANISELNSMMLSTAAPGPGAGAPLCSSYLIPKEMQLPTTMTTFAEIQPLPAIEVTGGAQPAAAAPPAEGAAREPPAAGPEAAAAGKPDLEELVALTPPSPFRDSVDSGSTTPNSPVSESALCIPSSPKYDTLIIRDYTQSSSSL
Method: Substituted imidazo[2,1-b]thiazole compounds corresponding to the foregoing formula I are likewise particularly preferred, which, after 60 minutes of incubation in 450 μg protein from pig brain homogenate at a temperature between 20° C. and 25° C. in a concentration of less than 2500 nM, preferably less than 1000 nM, particularly preferably less than 700 nM, very particularly preferably less than 100 nM, even more preferably less than 70 nM, bring about a 50-percent displacement of [^3H]-2-methyl-6-(3-methoxyphenyl)-ethynylpyridine which is present in a concentration of 5 nM. The determination of the displacement of [^3H]-2-methyl-6-(3-methoxyphenyl)-ethynyl-pyridine is performed as described hereinafter in the section Pharmacological Methods, I. Method for determining the inhibition of [^3H]-MPEP-bonding in the mGluR5 receptor bonding assay.
1. Method for Determining the Affinity to the mGluR5 Receptor
Pig brain homogenate is produced by homogenization (Polytron PT 3000, Kinematica AG, 10,000 rpm for 90 seconds) of pig brain halves without medulla, cerebellum and pons in buffer pH 8.0 (30 mM Hepes, Sigma, order no. H3375+1 tablet complete to 100 ml, Roche Diagnostics, order no. 1836145) in ratio 1:20 (brain weight/volume) and differential centrifugation at 900×g and 40,000×g. In each case, 450 μg protein from brain homogenate is incubated with 5 nM ^3-[H]-MPEP (Tocris, order no. R1212) (MPEP=2-methyl-6-(3-methoxyphenyl)-ethynylpyridine) in 250 μl incubation batches in 96 well microtitration plates and the compounds to be tested (10 μM in the test) in buffer (as above) at room temperature for 60 min.
Thereafter, the batches are filtered with the help of a Brandel Cell Harvester (Brandel, TYP Robotic 9600) on unifilter plates with glass fibre filter mats (Perkin Elmer, order no. 6005177) and subsequently washed with buffer (as above) 3 times with in each case 250 μl per sample. The filter plates are subsequently dried for 60 min at 55° C. 30 μL Ultima Gold™ scintillator is subsequently added per well (Packard BioScience, order no. 6013159) and the samples are measured after 3 hours on the β-counter (Mikrobeta, Perkin Elmer). The unspecific bond is determined by addition of 10 μM MPEP (Tocris, order no. 1212).

Compound | pKi (mGluR5 receptor (human)) | Formalin test (rat) p.o. Reduction in the nociceptive behavior over controls at 10 mg/kg (rat) | pIC50 (mGluR5 receptor (pig))
Cc1cn2c(NC(C)(C)C)c(-c3ccc(C#Cc4ccccn4)s3)nc2s1 [Example 4, N-tert-butyl-2-methyl-6-(5-(pyridine-2-ylethynyl)thiophene-2-yl)imidazo[2,1-b]thiazole-5-amine] | 9.51 | 62% | 8.26
CC(C)(C)Nc1c(-c2ccc(C#Cc3ccncc3)s2)nc2sccn12 [Example 7, N-tert-butyl-6-(5-(pyridine-4-ylethinyl)thiophene-2-yl)imidazo[2,1-b]thiazole-5-amine] | 9.59 |  | 8.52
